Measured values taken from patent US20170360875A1 (priority 2014, published 2017).
Where “and” joins values, the source holds several entries; their conditions need not be identical. Equal entries are not always repeated. Where two headings read alike, the source gives them in different places. Ends that are not written are not given here.

Experiments:
FcγIIIa = assay type: binding
C1q = assay type: binding, human
FcγIIb = assay type: binding
[1] = test system: Influenza A/MAL/NY/6750/78 H2N2 virus; conditions: for Percent Inhibition, 1:10 IAV / Percent Inhibition, 1:100 IAV: /MAL/NY/6750/78 H2N2 virus
FcγIIa (H131 allele) = assay type: binding, human
hepatitis A virus = assay type: binding; conditions: for 1:10 HAV (OD 405 nm): 1:10 virus dilution, IC alone 0.997; for 1:100 HAV (OD 405 nm): 1:100 virus dilution, IC alone 0.953
FcγIIIb (NA2) = assay type: binding
FcγIIb/c = assay type: binding
[2] = test system: hepatitis C virus core protein; assay type: binding; conditions: NB406 10 mg/mL
FcγI = assay type: binding
[3] = test system: Sudan Ebolavirus Glycoprotein (GP); assay type: binding
[4] = NB406 10 mg/mL, average of three experiments

## Asp-Cys-Ala-Phe-His-Leu-Gly-Glu-Leu-Val-Trp-Cys-Thr [SEQ ID NO:3]
FcγIIIa
  OD405 FcγIIIa: 0.810
C1q
  OD 405 nm: 0.859
FcγIIb
  OD405 FcγIIb: 0.510

## Asp-Cys-Ala-Trp-His-Leu-Gly-Glu-Leu-Val-Trp-Cys-Thr [SEQ ID NO:2]
FcγIIIa
  OD405 FcγIIIa: 0.741
C1q
  OD 405 nm: 1.100
FcγIIb
  OD405 FcγIIb: 0.532

## APPCAFHLGELVWCT (cysteine pairing not given here) [SEQ ID NO:18]
FcγIIIa
  OD405 FcγIIIa: 0.880
C1q
  OD 405 nm: 0.983
FcγIIb
  OD405 FcγIIb: 0.380

## CC(C)C[C@@H]1NC(=O)[C@H](Cc2c[nH]cn2)NC(=O)[C@H](Cc2c[nH]c3ccccc23)NC(=O)[C@H](C)NC(=O)[C@@H](NC(=O)[C@H](CC(=O)O)NC(=O)[C@@H]2CCCN2C(=O)[C@@H]2CCCN2C(=O)[C@H](C)N)CSSC[C@@H](C(=O)N[C@H](C(=O)O)[C@@H](C)O)NC(=O)[C@H](Cc2c[nH]c3ccccc23)NC(=O)[C@H](C(C)C)NC(=O)[C@H](CC(C)C)NC(=O)[C@H](CCC(=O)O)NC(=O)CNC1=O [SEQ ID NO:20]
[1]
  prevention of binding of IC to the influenza virus (in words): can effectively prevent the binding of IC to the influenza virus
[1]; 0.37 mg/mL
  Percent Inhibition, 1:10 IAV: 63.5%
  Percent Inhibition, 1:100 IAV: 61.6%
[1]; 1.11 mg/mL
  Percent Inhibition, 1:10 IAV: 89.5%
  Percent Inhibition, 1:100 IAV: 88.7%
[1]; 3.33 mg/mL
  Percent Inhibition, 1:10 IAV: 96.6%
  Percent Inhibition, 1:100 IAV: 96.0%
[1]; 10 mg/mL
  Percent Inhibition, 1:10 IAV: 97.6%
  Percent Inhibition, 1:100 IAV: 97.0%
FcγIIa (H131 allele)
  % inhibition of IC binding, FcγIIa* (H131 allele): 94%
  FcγIIa* (H131 allele) (read at 405 nm): 0.209
  inhibited binding of FcγRIIa to immune complexed IgG Fc: more than 70%
FcγIIIa
  OD405 FcγIIIa: 0.670
C1q
  OD 405 nm: 0.389
  inhibition of C1q binding (rank in words): greatest inhibition of C1q binding
FcγIIb
  OD405 FcγIIb: 0.496
Hepatitis A virus; NB406 1.11 mg/mL
  1:10 HAV (OD 405 nm): 0.762
  1:100 HAV (OD 405 nm): 0.774
Hepatitis A virus; NB406 3.33 mg/mL
  1:10 HAV (OD 405 nm): 0.305
  1:100 HAV (OD 405 nm): 0.155
Hepatitis A virus; [4]
  1:10 HAV (OD 405 nm): 0.050
  1:100 HAV (OD 405 nm): 0.055
Hepatitis A virus; conclusion from Table 5
  prevention of binding of IC to the hepatitis A virus (in words): can effectively prevent the binding of IC to the hepatitis A virus
Sudan Ebolavirus (SEBOV)
  prevention of binding of IC to the Ebola virus (in words): can effectively prevent the binding of IC to the Ebola virus
Sudan Ebolavirus (SEBOV); 1 mg/mL
  Percent Inhibition, 1:100 SEV: 77.6%
  Percent Inhibition, 1:1000 SEV: 64.8%
  Percent Inhibition, 1:10000 SEV: 58.6%
Sudan Ebolavirus (SEBOV); 3 mg/mL
  Percent Inhibition, 1:100 SEV: 95.1%
  Percent Inhibition, 1:1000 SEV: 94.6%
  Percent Inhibition, 1:10000 SEV: 94.6%
Sudan Ebolavirus (SEBOV); 10 mg/mL
  Percent Inhibition, 1:100 SEV: 96.6%
  Percent Inhibition, 1:1000 SEV: 96.3%
  Percent Inhibition, 1:10000 SEV: 96.3%
FcγIIIb (NA2)
  % inhibition of IC binding, FcγIIIb (NA2): 91%
  FcγIIIb (NA2) (read at 405 nm): 0.266
FcγIIb/c
  % inhibition of IC binding, FcγIIb/c: 88%
  FcγIIb/c (read at 405 nm): 0.266
  inhibited binding of FcγRIIb to immune complexed IgG Fc: more than 70%
[2]
  Percent Inhibition, 5 μg HCV Core Protein: 89.7%
[2]; IC alone 2.752, average of three experiments
  5 μg HCV Core Protein (OD 405 nm): 0.283
FcγI
  % inhibition of IC binding, FcγI: 89%
  FcγI (read at 405 nm): 0.264
[3]
  1 ug/mL GP (OD read at 405 nm): 0.042 and 0.053 and 0.071
  3 ug/mL GP (OD read at 405 nm): 0.042 and 0.046 and 0.081
  Percent Inhibition, 1 ug/mL GP: 96.8% and 96.0% and 94.6%
  Percent Inhibition, 3 ug/mL GP: 96.9% and 96.7% and 94.1%
  Percent Inhibition, 10 ug/mL GP: 97.1% and 96.4% and 94.1%
  prevention of binding of IC to the Ebolavirus glycoprotein (in words): can effectively prevent the binding of IC to the Ebolavirus glycoprotein
